In US20070134193A1, “Cosmetic and/or pharmaceutical preparations” (priority 2001, published 2007):

How the values were obtained:
human keratinocytes = experiment: Cell protecting effect against UVB on human keratinocytes cultivated in vitro (number of keratinocytes, released LDH); assay type: cell-based; conditions: UVB 50 mJ/cm^2, 0.03%
Method: Method: the effect of UVB radiation was investigated in vitro on keratinocytes by determining the release of the cytoplasm enzyme LDH (lactate dehydrogenase). This enzyme serves as a marker for cell damage.
To carry out the test, a defined medium (DMEM) containing fetal calf serum was inoculated with the keratinocytes and added to the plant extract (diluted with saline solution) 72 hours after inoculation.
The keratinocytes were then exposed to a UVB dose (50 mJ/cm^2-tubes: DUKE FL40E).
After incubation for another day ay 37° C./5% CO2. the LDH content in the supernatant phase was determined. The LDH (lactate dehydrogenase) content was spectrophotometrically determined by determining the NADH content during the LDH-catalyzed conversion of pyruvate to lactate by Bonnekoh's method (Bonnekoh B. et al.; Dermatol. Research; 282; 325-329; 1990).
The number of adhering keratinocytes was determined by a DNA assay based on the fluorescence measurement of fluorochromium that binds to cellular DNA using Desaulniers' method (Desaulniers D. et al.; Toxicol. in vitro; 12; 409-422; 1998) and a particle counter. Another test was carried out for comparison using a standard anti-inflammatory, acetyl salicyclic acid.

human fibroblasts = experiment: Cell protecting effect against UVA on human fibroblasts cultivated in vitro (MDA level, protein content); assay type: cell-based; conditions: UVA 365 nm, + vitamin E, concentration not given
Experimental: The lipoperoxides are degraded to malonaldialdehyde which will crosslink many biological molecules, such as proteins and nuclein bases (enzyme inhibition or mutagenesis).
Method: To carry out these tests, a defined culture medium (DMEM) containing the fibroblasts was inoculated with foetal calf serum and added to the plant extract (in the defined medium containing 10% foetal serum) 72 hours after inoculation. Incubation was carried out at 37° C./5% CO2.
After incubation for 48 hours at 37° C./5% CO2, the culture medium was replaced by saline solution (physioloigcal NaCl solution) and the fibroblasts were exposed to a dose of UVA (365 nm, 20 J/cm^2; tubes: MAZDA FLUOR TFWN40).
After the exposure to UVA, the MDA level (malonaldialdehyde level) in the supernatant sodium chloride solution was quantitatively determined by reaction with thiobarbituric acid. The protein content was determined by Bradford's method using a Coomassie Brilliant Blue color (Bradford, Analytical Biochem., 72; 248-254; 1976).

Row | Protein content (human fibroblasts) | Compound | Content of LDH released (human keratinocytes; UVB alone = 100) | Number of keratinocytes (human keratinocytes; control without UV = 100) | MDA level (human fibroblasts; 20 J/cm^2)
1 |  | CC(=O)Oc1ccccc1C(=O)O [acetylsalicylic acid] | 3(2) | 76(5) | 
2 | 102(11) % versus control | vitamin E |  |  | 31(4) % versus control
